# Experimental data as given in patent EP2815749A1, “Solid form of 4-amino-2-(2,6-dioxopiperidine-3-yl)isoindoline-1,3-dione having specified X-ray diffraction pattern” (IP Gesellschaft für Management mbH, priority 2013, dated 2014).
# Read-outs that look alike come from different tables or passages of the source.
# Key:
# [1] = Approximate solubility of pomalidomide at 50°C in 96 solvent compositions (LC); assay type: physicochemical; conditions: organic solvent or mixture, thermodynamic from solid
# Method: Pomalidomide Solid Form Preparations: Preparation of solid form of pomalidomide was conducted by equilibrating pomalidomide in 96 solvent compositions at 50°C and subjected to four conditions: slurry, evaporation, cooling, and precipitation. […] Solvents were then added, as binary gradients consisting of main solvent and co-solvent, to give a total of 150 µl, in each of the 96 vials (see Table 6 for the exact composition of each vial). […] For each of the evaporation, precipitation, and cooling experiments, approximately 8 mg of a solid sample of pomalidomide (e.g., Form A) was delivered to each position of the plate. Solvents were added to the master plate, as binary gradients consisting of main solvent and co-solvent, to give a total volume of 800 µT in each of the 96 vials (see Table 7 for the exact composition of each vial). The master plate, containing pomalidomide and solvents, was then equilibrated by stirring for 2 hours at 50°C. Upon completion of the equilibration cycle, the supernatant was aspirated into a four-tipped needle assembly and transferred to a sealed parallel filtration assembly. The mixtures were forced through the filtration assembly using positive pressure and the filtrates were collected in an array of glass vials. The filtered solutions were subsequently aspirated into the four-tipped assembly and aliquots were dispensed to an array of glass vials for subsequent LC analysis to determine approximate concentrations of pomalidomide in each solvent composition at the beginning of the experiments (Table 8). Both the four-tipped needle assembly and filtration assembly were maintained at the equilibration temperature of 50°C throughout the entire transfer process.
# The results correspond to the solvent systems described in Table 7, equilibrated at 50°C for 2 hours. […] The approximate concentrations were determined by LC.
# [2] = Solubility of pomalidomide in various solvents; assay type: physicochemical; conditions: ambient temperature
# Method: Pomalidomide Polymorph Preparations: A weighed sample of pomalidomide (about 100 mg) was treated with 2 mL of a test solvent. The solvents used were either reagent or HPLC grade. The resulting mixture was agitated for at least 24 hours at 25°C. When all of the solids were dissolved by visual inspection, the estimated solubilities were calculated. The solubility was estimated from these experiments based on the total volume of solvent used to give a solution. The actual solubility may be greater than those calculated due to the use of a large amount of solvent or to a slow rate of dissolution. […] A known volume of filtrate was evaporated to dryness and the weight of the residue was measured. Equilibration and evaporation experiments were carried out by adding an excess of pomalidomide to 4 mL of a test solvent. The resulting mixture was agitated for at least 24 hours at 25°C and 50°C separately. Upon reaching equilibrium, the saturated solution was removed and allowed to evaporate slowly in an open vial under nitrogen at 25°C and 50°C respectively. The slurry resulting from the equilibration was filtered and dried in the air. Crystallizations using cooling methods were performed. The solid was dissolved in a solvent at an elevated temperature, approximately 80°C and allowed to cool to room temperature. […] Solids were isolated by decantation and allowed to dry in the air. Precipitation studies were carried out by solvent/anti-solvent combinations. The solid was dissolved in a solvent in which pomalidomide solubility was high, and then a selected solvent in which pomalidomide was highly insoluble (anti-solvent) was added to the solution. A precipitate formed immediately in some solvent/anti-solvent systems. […] The precipitate was then isolated by decantation and allowed to dry in the air. All of the samples generated as described in the polymorph preparation study were analyzed by XRPD. X PD was conducted on a Thermo ARL X'TRA X-ray powder diffractometer using Cu Kcc radiation at 1.54 A. The instrument was equipped with a fine focus X-ray tube. The voltage and amperage of X-ray generator were set at 45 kV and 40 mA, respectively. The divergence slices were set at 4 mm and 2 mm and the measuring slices were set at 0.5 mm and 0.2 mm. Diffracted radiation was detected by peitier-cooled Si(Li) solid state detector. A theta-two theta continuous scan at 2.40°/min (0.5 sec/0.02c step) from 1.5° 20 to 40° 2.0 was used. A sintered alumina standard was used to check the peak position. DSC analyses were performed on a TA instrument Q1000. Indium was used as calibration standards. Approximately 2-5 mg of sample was placed into a DSC pan and the weight was accurately recorded. The sample was heated under nitrogen at a rate of 10°C/min, up to a final temperature of 350°C. Melting points were reported as extrapolated onset temperature. TG analyses were performed on a TA instrument Q500. Calcium oxalate was used for performance check. Approximately 10-25 mg of sample was placed on a pan, accurately weighed and loaded into the TG furnace. The sample was heated under nitrogen at a rate of 10°C/min, up to a final temperature of 350°C. Morphology and particle size analysis of the samples were carried out on an Olympus microscope. The instrument was calibrated with USP standards. Hygroscopicity was determined on a Surface Measurement Systems DVS. Typically a sample size of 10-50 mg was loaded into the DVS instrument sample pan and the sample was analyzed on a DVS automated sorption analyzer at 25°C. The relative humidity was increased in 10% increments from 0% to 95% RH. The relative humidity was then decreased in a similar mariner to accomplish a full adsosption/desorption cycle. […]
compound,measurement,setting,value
"Nc1cccc2c1C(=O)N(C1CCC(=O)NC1=O)C2=O (stereo not drawn) [Pomalidomide, 4-amino-2-(2,6-dioxopiperidine-3-yl)isoindoline-1,3-dione]",solubility at 2 h,"[1]; binary solvent mixture (main solvent and co-solvent), 50 °C, solvent system E8 of Table 7, read-out: Approximate Measured Solubility",730 µg/mL
same,solubility at 2 h,"[1]; binary solvent mixture (main solvent and co-solvent), 50 °C, solvent system E9 of Table 7, read-out: Approximate Measured Solubility",1630 µg/mL
same,solubility at 2 h,"[1]; binary solvent mixture (main solvent and co-solvent), 50 °C, solvent system E10 of Table 7, read-out: Approximate Measured Solubility",2310 µg/mL
same,solubility at 2 h,"[1]; binary solvent mixture (main solvent and co-solvent), 50 °C, solvent system E11 of Table 7, read-out: Approximate Measured Solubility",2480 µg/mL
same,solubility at 2 h,"[1]; binary solvent mixture (main solvent and co-solvent), 50 °C, solvent system E12 of Table 7, read-out: Approximate Measured Solubility",950 µg/mL
same,solubility at 2 h,"[1]; binary solvent mixture (main solvent and co-solvent), 50 °C, solvent system F1 of Table 7, read-out: Approximate Measured Solubility",100 µg/mL
same,solubility at 2 h,"[1]; binary solvent mixture (main solvent and co-solvent), 50 °C, solvent system F2 of Table 7, read-out: Approximate Measured Solubility",60 µg/mL
same,solubility at 2 h,"[1]; binary solvent mixture (main solvent and co-solvent), 50 °C, solvent system F3 of Table 7, read-out: Approximate Measured Solubility",30 µg/mL
same,solubility at 2 h,"[1]; binary solvent mixture (main solvent and co-solvent), 50 °C, solvent system F4 of Table 7, read-out: Approximate Measured Solubility",10 µg/mL
same,solubility at 2 h,"[1]; binary solvent mixture (main solvent and co-solvent), 50 °C, solvent system F7 of Table 7, read-out: Approximate Measured Solubility",40 µg/mL
same,solubility at 2 h,"[1]; binary solvent mixture (main solvent and co-solvent), 50 °C, solvent system F8 of Table 7, read-out: Approximate Measured Solubility",40 µg/mL
same,solubility at 2 h,"[1]; binary solvent mixture (main solvent and co-solvent), 50 °C, solvent system F9 of Table 7, read-out: Approximate Measured Solubility",130 µg/mL
same,solubility at 2 h,"[1]; binary solvent mixture (main solvent and co-solvent), 50 °C, solvent system F12 of Table 7, read-out: Approximate Measured Solubility",550 µg/mL
same,solubility at 2 h,"[1]; binary solvent mixture (main solvent and co-solvent), 50 °C, solvent system G1 of Table 7, read-out: Approximate Measured Solubility",2690 µg/mL
same,solubility at 2 h,"[1]; binary solvent mixture (main solvent and co-solvent), 50 °C, solvent system G2 of Table 7, read-out: Approximate Measured Solubility",1650 µg/mL
same,solubility at 2 h,"[1]; binary solvent mixture (main solvent and co-solvent), 50 °C, solvent system G3 of Table 7, read-out: Approximate Measured Solubility",700 µg/mL
same,solubility at 2 h,"[1]; binary solvent mixture (main solvent and co-solvent), 50 °C, solvent system G4 of Table 7, read-out: Approximate Measured Solubility",230 µg/mL
same,solubility at 2 h,"[1]; binary solvent mixture (main solvent and co-solvent), 50 °C, solvent system G5 of Table 7, read-out: Approximate Measured Solubility",60 µg/mL
same,solubility at 2 h,"[1]; binary solvent mixture (main solvent and co-solvent), 50 °C, solvent system G7 of Table 7, read-out: Approximate Measured Solubility",30 µg/mL
same,solubility at 2 h,"[1]; binary solvent mixture (main solvent and co-solvent), 50 °C, solvent system G8 of Table 7, read-out: Approximate Measured Solubility",410 µg/mL
same,solubility at 2 h,"[1]; binary solvent mixture (main solvent and co-solvent), 50 °C, solvent system G9 of Table 7, read-out: Approximate Measured Solubility",650 µg/mL
same,solubility at 2 h,"[1]; binary solvent mixture (main solvent and co-solvent), 50 °C, solvent system G10 of Table 7, read-out: Approximate Measured Solubility",2310 µg/mL
same,solubility at 2 h,"[1]; binary solvent mixture (main solvent and co-solvent), 50 °C, solvent system G11 of Table 7, read-out: Approximate Measured Solubility",5180 µg/mL
same,solubility at 2 h,"[1]; binary solvent mixture (main solvent and co-solvent), 50 °C, solvent system G12 of Table 7, read-out: Approximate Measured Solubility",5990 µg/mL
same,solubility at 2 h,"[1]; binary solvent mixture (main solvent and co-solvent), 50 °C, solvent system H1 of Table 7, read-out: Approximate Measured Solubility",380 µg/mL
same,solubility at 2 h,"[1]; binary solvent mixture (main solvent and co-solvent), 50 °C, solvent system H2 of Table 7, read-out: Approximate Measured Solubility",240 µg/mL
same,solubility at 2 h,"[1]; binary solvent mixture (main solvent and co-solvent), 50 °C, solvent system H3 of Table 7, read-out: Approximate Measured Solubility",110 µg/mL
same,solubility at 2 h,"[1]; binary solvent mixture (main solvent and co-solvent), 50 °C, solvent system H4 of Table 7, read-out: Approximate Measured Solubility",40 µg/mL
same,solubility at 2 h,"[1]; binary solvent mixture (main solvent and co-solvent), 50 °C, solvent system H7 of Table 7, read-out: Approximate Measured Solubility",50 µg/mL
same,solubility at 2 h,"[1]; binary solvent mixture (main solvent and co-solvent), 50 °C, solvent system H8 of Table 7, read-out: Approximate Measured Solubility",400 µg/mL
same,solubility at 2 h,"[1]; binary solvent mixture (main solvent and co-solvent), 50 °C, solvent system H10 of Table 7, read-out: Approximate Measured Solubility",1500 µg/mL
same,solubility at 2 h,"[1]; binary solvent mixture (main solvent and co-solvent), 50 °C, solvent system H11 of Table 7, read-out: Approximate Measured Solubility",1960 µg/mL
same,solubility at 2 h,"[1]; binary solvent mixture (main solvent and co-solvent), 50 °C, solvent system H12 of Table 7, read-out: Approximate Measured Solubility",2060 µg/mL
same,solubility at 2 h,"[1]; solvent system H9 of Table 7, read-out: Approximate Measured Solubility",860 µg/mL
same,solubility at 2 h,"[1]; solvent system A1 of Table 7, 50 °C, solvent system A1 of Table 7, read-out: Approximate Measured Solubility",2240 µg/mL
same,solubility at 2 h,"[1]; solvent system A2 of Table 7, 50 °C, solvent system A2 of Table 7, read-out: Approximate Measured Solubility",8190 µg/mL
same,solubility at 2 h,"[1]; solvent system A3 of Table 7, 50 °C, solvent system A3 of Table 7, read-out: Approximate Measured Solubility",2430 µg/mL
same,solubility at 2 h,"[1]; solvent system A10 of Table 7, 50 °C, solvent system A10 of Table 7, read-out: Approximate Measured Solubility",1830 µg/mL
same,solubility at 2 h,"[1]; solvent system A11 of Table 7, 50 °C, solvent system A11 of Table 7, read-out: Approximate Measured Solubility",290 µg/mL
same,solubility at 2 h,"[1]; solvent system A12 of Table 7, 50 °C, solvent system A12 of Table 7, read-out: Approximate Measured Solubility",80 µg/mL
same,solubility,[2]; Methyl t-butyl ether,1030 µg/mL
same,solubility,"[2]; acetone, 25 °C, organic solvent or mixture, thermodynamic from solid, Acetone, read-out: Solubility",1990 µg/mL
same,solubility,"[2]; acetonitrile, 25 °C, organic solvent or mixture, thermodynamic from solid, Acetonitrile, read-out: Solubility",1270 µg/mL
same,solubility,"[2]; ethanol/water (1:1), 25 °C, aqueous with cosolvent or surfactant or cyclodextrin, thermodynamic from solid, Ethanol/Water (1:1), read-out: Solubility",540 µg/mL
same,solubility,"[2]; methyl ethyl ketone, 25 °C, organic solvent or mixture, thermodynamic from solid, Methyl ethyl ketone, read-out: Solubility",1260 µg/mL
same,solubility,"[2]; methyl t-butyl ether, 25 °C, organic solvent or mixture, thermodynamic from solid, Methyl t-butyl ether, read-out: Solubility",< 1000 µg/mL
same,solubility,"[2]; methylene chloride, 25 °C, organic solvent or mixture, thermodynamic from solid, Methylene chloride, read-out: Solubility",1450 µg/mL
same,solubility,"[2]; tetrahydrofuran, 25 °C, organic solvent or mixture, thermodynamic from solid, Tetrahydrofuran, read-out: Solubility",5260 µg/mL
